Assay results from patent publication US20180363025A1, “T[…] FOR GUT INFLAMMATION” (William Marsh Rice University, priority 2015, published 2018).
“Also recorded” adds a separate entry of the source.

Key:
[1] = tested on: Shal_3128/9; conditions: TEAs tested at 10 mM; E. coli BW28357 expressing Shal_3128/9; FIG. 3D
From the text: The sensor kinase was expressed from a p15A medium-copy expression vector with spectinomycin resistance. Production of Shal_3128 was driven by the Ptac promoter and a designed synthetic RBS (predicted strength 1,000), which was induced by IPTG and regulated by constitutively expressed LacI. Transcription of Shal_3128, LacI, and Spec^R was terminated by the B0015, T1, and T0 terminators, respectively.
The response regulator and rewired output promoter driving GFP production were on a ColE1 high-copy expression vector with chloramphenicol resistance. Shal_3129 production was regulated by constitutively expressed TetR at the PLTetO-1 aTc-inducible promoter with a synthetic RBS (predicted strength 1,000). […] Production of sfGFP was regulated by output of the PShal_3127 promoter using the B0034 RBS, which provides a visual readout of Shal_3128/9 activity. Transcription of Shal_3129, sfGFP, TetR, and Cm^R was terminated by the B0015, B0015, T1, and T0 terminators, respectively.
Both plasmids were transformed into the BW28357 E. coli strain, available from The Coli Genetic Stock Center (CGSC#: 7991, F−, Δ(araD-araB)567, ΔlacZ4787(TrnB-3); lambda^−, Δ(rhaD-rhaB)568, hsdR514).

[2] = tested on: thiosulfate sensor; experiment: Effect of DSS on GFP output of optimized thiosulfate sensor; type: cell-based, Shewanella halifaxensis; conditions: 3% DSS; optimized constitutive sensor in E. coli Nissle; FIG. 4D
thiosulfate sensor, sequence (as listed by the source): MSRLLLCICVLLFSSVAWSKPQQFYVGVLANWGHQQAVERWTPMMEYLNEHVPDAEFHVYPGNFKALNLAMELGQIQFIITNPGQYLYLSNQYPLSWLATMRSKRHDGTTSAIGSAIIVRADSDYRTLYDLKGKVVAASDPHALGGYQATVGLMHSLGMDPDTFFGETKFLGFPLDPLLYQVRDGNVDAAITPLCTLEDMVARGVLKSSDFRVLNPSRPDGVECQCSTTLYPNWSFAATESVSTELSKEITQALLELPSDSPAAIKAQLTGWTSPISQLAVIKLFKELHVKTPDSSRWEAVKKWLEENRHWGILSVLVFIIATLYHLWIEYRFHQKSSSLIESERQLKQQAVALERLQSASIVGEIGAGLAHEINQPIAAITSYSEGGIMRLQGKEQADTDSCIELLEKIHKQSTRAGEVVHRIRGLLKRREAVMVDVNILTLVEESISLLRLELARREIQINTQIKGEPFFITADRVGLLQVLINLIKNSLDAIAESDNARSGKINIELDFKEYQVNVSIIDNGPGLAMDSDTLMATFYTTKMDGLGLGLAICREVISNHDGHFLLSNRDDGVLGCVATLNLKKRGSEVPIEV
thiosulfate sensor, sequence (as listed by the source partner): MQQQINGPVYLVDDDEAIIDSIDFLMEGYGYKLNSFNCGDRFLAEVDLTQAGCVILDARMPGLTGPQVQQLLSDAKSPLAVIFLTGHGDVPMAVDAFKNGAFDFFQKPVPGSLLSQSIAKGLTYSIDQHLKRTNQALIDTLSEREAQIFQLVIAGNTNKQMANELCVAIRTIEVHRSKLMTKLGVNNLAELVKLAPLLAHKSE
From the text: FIG. 4A-D. Sensor optimization for thiosulfate detection in the gut. (4A) Changes made between the initial characterization constructs and in vivo optimized sensor. (4B) Layout of sensor components on the final two plasmid expression system. (4C) Normalized dose-response behavior of thiosulfate sensors. Shown is the original, inducible, BW28357 strain grown aerobically (closed circles), and the selected constitutive promoter strain in Nissle grown aerobically (closed squares) and anaerobically (open squares). A shift in half-maximal response indicates sensitivity to oxygen. (4D) Dynamic range of optimized thiosulfate sensors. GFP output is shown in the absence (grey bars) and presence of 5 mM thiosulfate or 1 mM tetrathionate, respectively (black bars).

[3] = tested on: Shal_3128/9; experiment: Ligand competition assay, sensor response to thiosulfate in presence of other TEAs; type: cell-based, Shewanella halifaxensis; conditions: 5 mM thiosulfate plus 10 mM other TEA; FIG. 3E
Protocol: FIG. 3A-F. Characterization of the thiosulfate-sensing proteins: Shal_3128/9. (3A) The S. halifaxensis genomic region containing the thiosulfate reductase operon (Shal_3125-7) and neighboring thiosulfate-sensing TCS (Shal_3128/9). (3B) Plasmid design of the inducible thiosulfate sensor. […] (3D) Selectivity of Shal_3128/9 to thiosulfate over other terminal electron acceptors. All TEAs were tested at 10 mM concentration. (3E) Ligand competition assay. Sensor performance at 5 mM thiosulfate was tested in the presence of 10 mM other TEAs, and a decrease in response indicates inhibition by the added ligand. (3F) Inhibition curve of tetrathionate (filled circles) and sulfite (open squares) in the presence of 5 mM thiosulfate.

| Compound | competition (inhibition of thiosulfate response) [3] | further results |
| --- | --- | --- |
| O=S(O)(O)=S [thiosulfate] |  | stimulation of production of reporter protein GFP [1]: effectively stimulated production of reporter protein GFP |
| Dextran Sodium Sulfate [DSS] |  | activation or inhibition of sensor signaling [2]: does not activate or inhibit signaling; also recorded: does not appear to be sensitive |
| O=S(O)O [sulfite] | modest level of competition |  |
| O=S(=O)(O)SSS(=O)(=O)O [tetrathionate] | modest level of competition |  |
